Measured values as given in patent US7741348B2, “Bisheterocycle tandem compounds useful as antiviral agents, the uses thereof and the compositions comprising such compounds” (Shanghai Institute of Materia Medica, Chinese Academy of …, priority 2005, dated 2010).
pIC50: −log10 of the molar value. Values after ≈ are worked out from the molar mass of the structure shown.

What was measured:
[1] = tested on: hepatitis B virus (HBV); assay: HBeAg secretion in HepG2.2.15 culture supernatant (ELISA); type: cell-based; conditions: HepG2.2.15 supernatant, eighth day, read-out: HBeAg secreation IC50
Description: (§1) Hepatitis B virus (HBV) transgenic human hepatoma carcinoma cell, HepG2.2.15 cell line, can secrete hepatitis B virus particles (containing antigen and DNA) into supernatant when being cultured.
(§2) Under action of antiviral drugs, the contents of HBsAg, HBeAg and viral DNA secreted from cells into the supernatant were detected and are compared with the contents of control groups without drugs, so that the antiviral activity of the compounds of the present invention can be measured as well as the cytotoxic effect of compounds of the present invention. The value concentration of the compounds of the present invention which caused 50% of cells dead and was measured with MTT method was CC50; and the value concentration of the compounds of the present invention which inhibited the secretion of HBsAg and HBeAg detected by ELISA method and inhibited 50% of viral DNA replication detected by fluorescent quantification PCR method was IC50.
(§3) HepG2.2.15 cells were inoculated on a 96-well plate, and the compounds of the present invention were added next day. The medium and the compound solutions of the same concentration were renewed periodically. The culture supernatants were collected on the eighth day to be detected. MTT was added to the cells on the 96-well plate, and MTT dissolving liquid was added after 4 hours to be reacted overnight. OD570 was measured next day on microplate reader. And the cytotoxicity of the compounds of the present invention to the HepG2.2.15 cells, the effect of the compounds of the present invention on the growth of the cells, and the concentration of the compound of the present invention (CC50) causing 50% of the cells dead were estimated according to the OD values.
(§4) HBsAg and HBeAg were detected with assaying kits (purchased from Sino-American biotechnological company). Samples were added to the coated strip plate, and the same amount of enzyme labeled conjugate was added, after reacting under 37° C. for 1 hour, the plate was washed 5 times. Colorant solutions A and B were added, and the reaction was stopped after 15 minutes, and OD450/630 was measured. The half inhibition rate IC50 of the sample for the HBV antigen was calculated according to the OD values.

[2] = tested on: hepatitis B virus (HBV); assay: HBV-DNA replication in HepG2.2.15 culture supernatant (fluorescent quantification PCR); type: cell-based; conditions: for pIC50: HepG2.2.15 supernatant, eighth day, fluorescent quantification PCR, read-out: DNA replication IC50
Description: as §1, §2, §3
A suitable amount of culture supernatant was added into a same volume of virus extract solution, and was boiled after mixed uniformly, then centrifuged at 10000 rpm for 5 min under room temperature. A suitable amount of supernatant was collected for PCR amplification. Five HBV-DNA standard samples were used to set a standard curve. According to the obtained viral DNA replication value, the inhibition rates of HBV-DNA replication of the compound of the present invention at different concentrations were calculated, and then the half inhibition rates of the compounds were calculated to obtain IC50. For the samples that can not be calculated for IC50 value, they can be represented by ICX and given the corresponding concentration values.

[3] = tested on: hepatitis B virus (HBV); assay: HBsAg secretion in HepG2.2.15 culture supernatant (ELISA); type: cell-based; conditions: HepG2.2.15 supernatant, eighth day, read-out: HBsAg secreation IC50
Description: as §1, §2, §3, §4

[4] = Cytotoxicity to HepG2.2.15 cells (MTT method); type: cell-based; conditions: human, HepG2.2.15 cells (HBV-transgenic human hepatoma cells), 50% death concentration, eighth day
Description: as §1, §2, §3

[5] = tested on: Vero (African green monkey kidney) cells; assay: 50% toxicity concentration in the anti-herpes virus screen (Vero cells); conditions: 50% toxity concentration, Table 3-1 (herpes virus screen, Vero cells)
[6] = tested on: MDCK (canine kidney) cells; assay: 50% toxicity concentration in the anti-influenza screen (MDCK cells); type: cell-based; conditions: 50% toxity concentration, Table 3-2 (influenza screen, MDCK cells)
Description: (§5) 4. Screening of the samples for the anti-influenza virus A and B activity: MDCK (canine kidney) cells were used as the virus host to test the inhibition effect of the compounds of the present invention on the cytopathic effect (CPE) of the cells caused by the virus.

[7] = tested on: influenza A virus; assay: Anti influenza A virus activity, cytopathic effect (CPE) in MDCK cells; type: cell-based
Description: as §5

[8] = tested on: herpes virus II (HSV-II); assay: Anti herpes virus II activity, cytopathic effect in Vero cells; type: cell-based; conditions: Human alphaherpesvirus 2; Vero cells, cytopathic effect; read-out: Anti herpes virus II HSV-II (IC50)
Description: 3. Screening of the compounds for the anti-herpes virus I and II activity: Vero (African green monkey kidney) cells were used as virus host to test the inhibition effect of the compounds of the present invention on the cytopathic effect of the Vero cells caused by Herpes virus I and II.

SMILES	pIC50 [1]	pIC50 [3]	CC50 [4] [µM]	TC50 [6] [µg/mL]	IC50 [7] [µg/mL]	other results
O=C(O)c1nc(-c2nccs2)sc1Cc1ccccc1 [Wang302]	4.08	–	–	–	–	pIC50 ([2]; Hepatitis B virus): 4.20
CCCCc1sc(-c2nccs2)nc1C(=O)OC [Wang282]	4.24	4.23	397	–	–	pIC50 ([2]; Hepatitis B virus): 4.71
Nc1nc2c(ncn2COCCO)c(=O)[nH]1 [ACV (acyclovir), acyclovir, reference compound]	–	–	–	–	–	TC50 [5]: >1000 µg/mL
CCOC(=O)c1nc(-c2cccs2)[nH]c1-c1ccccc1 [Wang298]	3.68	3.84	569	–	–	–
COC(=O)c1nc(-c2csc([C@@H](NC(=O)C3CCCC3)C(C)C)n2)oc1C [Wang391.49-1]	–	–	–	250 (≈ 639 µM)	0.56 (≈ 1.43 µM)	–
CCCc1[nH]c(-c2nccs2)nc1C(=O)OCC [Wang265]	4.41	3.88	548	–	–	DNA replication IC44 ([2]; ICX: concentration with 44% inhibition of HBV-DNA replication, IC50 not calculable): IC44 = 4.1 uM
COC(=O)c1coc([C@H](C)NC(=O)c2nc(-c3csc([C@@H](NC(=O)CC=C(C)C)C(C)C)n3)oc2C)n1 [Wang529.61-2]	–	–	–	577.35 (≈ 1090 µM)	111 (≈ 210 µM)	–
COC(=O)c1coc([C@H](C)NC(=O)c2nc(-c3csc([C@@H](NC(=O)CC4=CCCCC4)C(C)C)n3)oc2C)n1 [Wang 555.65]	–	–	–	577.35 (≈ 1040 µM)	44.5 (≈ 80 µM)	–
CCCc1[nH]c(-c2cccs2)nc1C(=O)OCC [Wang264]	4.02	4.38	124	–	–	–
COC(=O)c1nc(-c2csc([C@@H](NC(=O)c3ccccc3F)C(C)C)n2)oc1C [Wang417.46-J]	–	3.84	755	>1000	> 86.2	–
COC(=O)c1nc(-c2csc([C@@H](NC(=O)CC3=CCCC3)C(C)C)n2)oc1C [Wang 403.50]	–	–	–	333.33 (≈ 826 µM)	64.2 (≈ 159 µM)	–
Cc1oc(-c2csc([C@@H](NC(=O)CC3=CCCC3)C(C)C)n2)nc1C(=O)O [Wang389.47]	–	–	–	480.75 (≈ 1230 µM)	29 (≈ 74.5 µM)	–
Clc1nc(-c2nccs2)[nH]c1-c1ccccc1 [Wang261]	4.43	4.03	123	–	–	–
COC(=O)c1nc(-c2csc([C@@H](NC(=O)C(C)(C)C)C(C)C)n2)oc1C [Yao379.47]	–	–	–	577.35 (≈ 1520 µM)	97.8 (≈ 258 µM)	–
C=CCC(=O)N[C@H](c1nc(-c2nc(C(=O)N[C@@H](C)c3nc(C(=O)OC)co3)c(C)o2)cs1)C(C)C [Wang 501.56-2]	–	–	–	577.35 (≈ 1150 µM)	68.7 (≈ 137 µM)	–
CCC(=O)N[C@H](c1nc(-c2nc(C(=O)OC)c(C)o2)cs1)C(C)C [Yao 351.42]	–	–	–	577.35 (≈ 1640 µM)	259 (≈ 736 µM)	–
CCCCc1sc(-c2nccs2)nc1C(=O)O [Wang268]	3.89	4.43	–	–	–	DNA replication IC53 ([2]; ICX: concentration with 53% inhibition of HBV-DNA replication, IC50 not calculable): IC53 = 125 uM

SMILES	pIC50 [1]	pIC50 [3]	CC50 [4] [µM]	TC50 [6] [µg/mL]	IC50 [7] [µg/mL]	other results
COC(=O)c1nc(-c2nccs2)sc1CC(C)C [Wang282-1]	4.66	4.17	–	–	–	pIC50 ([2]; Hepatitis B virus): 5.62
COC(=O)c1coc([C@H](C)NC(=O)c2nc(-c3csc([C@@H](NC(=O)C4CC4)C(C)C)n3)oc2C)n1 [Wang 501.56-1]	–	–	–	303.69 (≈ 605 µM)	1.18 (≈ 2.35 µM)	TC50 [5]: 707.11 µg/mL (≈ 1410 µM); IC50 [8]: 293 µg/mL (≈ 585 µM)
COC(=O)c1nc(-c2csc([C@@H](NC(=O)c3cccs3)C(C)C)n2)oc1C [Wang405.49]	4.34	4.20	154	–	–	pIC50 ([2]; Hepatitis B virus): 4.12
CCCCc1[nH]c(-c2cccs2)nc1C(=O)OCC [Wang278]	4.62	4.17	153	–	–	pIC50 ([2]; Hepatitis B virus): 5.32
COC(=O)c1nc(-c2nccs2)sc1Cc1ccccc1 [Wang316]	4.15	4.47	174	–	–	IC20 ([2]; Hepatitis B virus, HepG2.2.15): 31.3 µM
COC(=O)c1nc(-c2csc([C@@H](NC(=O)CC=C(C)C)C(C)C)n2)oc1C [Wang391.49-2]	–	–	–	>1000	> 192	–
Clc1nc(-c2cccs2)[nH]c1-c1ccccc1 [Wang260]	3.89	4.15	270	–	–	DNA replication IC85 ([2]; ICX: concentration with 85% inhibition of HBV-DNA replication, IC50 not calculable): IC85 = 37 uM
COC(=O)c1nc(-c2csc([C@@H](NC(=O)c3ccccc3OC)C(C)C)n2)oc1C [Wang429.49]	–	–	–	333.33 (≈ 776 µM)	47.7 (≈ 111 µM)	–
COC(=O)c1coc([C@H](C)NC(=O)c2nc(-c3csc([C@@H](NC(=O)C4CCCCC4)C(C)C)n3)oc2C)n1 [Wang 543.64-1]	–	–	–	144.34 (≈ 266 µM)	57.8 (≈ 106 µM)	–
COC(=O)c1nc(-c2csc([C@@H](NC(=O)CC3=CCCCC3)C(C)C)n2)oc1C [Wang 417.52]	–	–	–	231.12 (≈ 554 µM)	68.7 (≈ 165 µM)	–
COC(=O)c1coc([C@H](C)NC(=O)c2nc(-c3csc([C@@H](NC(=O)c4ccccc4)C(C)C)n3)oc2C)n1 [Wang 537.59]	–	–	–	>1000	1.29 (≈ 2.4 µM)	–
CCOC(=O)c1nc(-c2nccs2)[nH]c1CC(C)C [Wang279-1]	3.99	3.85	786	–	–	DNA replication IC60 ([2]; ICX: concentration with 60% inhibition of HBV-DNA replication, IC50 not calculable): IC60 = 37 uM
CCC(=O)N[C@H](c1nc(-c2nc(C(=O)N[C@@H](C)c3nc(C(=O)OC)co3)c(C)o2)cs1)C(C)C [Wang489.55]	–	–	–	577.35 (≈ 1180 µM)	160 (≈ 327 µM)	–
COC(=O)c1nc(-c2ncco2)sc1-c1ccc(F)cc1Cl [Wang338]	4.65	4.11	200	–	–	pIC50 ([2]; Hepatitis B virus): 5.21
CC(C)Cc1sc(-c2nccs2)nc1C(=O)O [Wang268-1]	4.00	4.05	437	–	–	pIC50 ([2]; Hepatitis B virus): 3.82
CCOC(=O)c1nc(-c2cccs2)[nH]c1CC(C)C [Wang278-1]	4.72	4.47	90.3	–	–	DNA replication IC88 ([2]; ICX: concentration with 88% inhibition of HBV-DNA replication, IC50 not calculable): IC88 = 1.37 uM
